Experiments:
Assay type in all cases: in vivo
[1] = system: Ipomoea hederacea (IPOHE); assay: Pre-emergence herbicidal test; settings: 1000 g/ha, evaluated after 13 days
[2] = system: Zea mays (ZEAMX); assay: Pre-emergence herbicidal test; settings: 1000 g/ha, evaluated after 13 days
[3] = system: Abutilon theophrasti (ABUTH); assay: Pre-emergence herbicidal test; settings: 1000 g/ha, evaluated after 13 days
[4] = system: Echinochloa crus-galli (ECHCG); assay: Pre-emergence herbicidal test; settings: 1000 g/ha, evaluated after 13 days
[5] = system: Setaria faberi (SETFA); assay: Post-emergence herbicidal test; settings: 1000 g/ha unless otherwise stated, evaluated after 13 days
Summary of the method: (§1)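 Damage score (0–5; 5=81-100%, 1=10-20%, 0=0%) read 13 d after spraying. Spray: acetone/water 50:50 + 0.5% Tween 20, 1000 g/ha unless stated.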

[6] = system: Ipomoea hederacea (IPOHE); assay: Post-emergence herbicidal test; settings: 1000 g/ha unless otherwise stated, evaluated after 13 days
Summary of the method: as §1

[7] = system: Zea mays (ZEAMX); assay: Post-emergence herbicidal test; settings: 1000 g/ha unless otherwise stated, evaluated after 13 days
Summary of the method: as §1

[8] = system: Abutilon theophrasti (ABUTH); assay: Post-emergence herbicidal test; settings: 1000 g/ha unless otherwise stated, evaluated after 13 days
Summary of the method: as §1

[9] = system: Amaranthus retoflexus (AMARE); assay: Post-emergence herbicidal test; settings: 1000 g/ha unless otherwise stated, evaluated after 13 days
Summary of the method: as §1

[10] = system: Echinochloa crus-galli (ECHCG); assay: Post-emergence herbicidal test; settings: 1000 g/ha unless otherwise stated, evaluated after 13 days
Summary of the method: as §1

[11] = system: Amaranthus retoflexus (AMARE); assay: Pre-emergence herbicidal test; settings: 1000 g/ha, evaluated after 13 days
[12] = system: Setaria faberi (SETFA); assay: Pre-emergence herbicidal test; settings: 1000 g/ha, evaluated after 13 days

Compound | percentage damage caused to the plant, five-point scale, IPOHE [1] | percentage damage caused to the plant, five-point scale, ZEAMX [2] | percentage damage caused to the plant, five-point scale, ABUTH [3] | percentage damage caused to the plant, five-point scale, ECHCG [4] | percentage damage caused to the plant, SETFA (five-point scale) [5] | percentage damage caused to the plant, IPOHE (five-point scale) [6] | percentage damage caused to the plant, ZEAMX (five-point scale) [7] | percentage damage caused to the plant, ABUTH (five-point scale) [8] | percentage damage caused to the plant, AMARE (five-point scale) [9] | percentage damage caused to the plant, ECHCG (five-point scale) [10] | percentage damage caused to the plant, five-point scale, AMARE [11] | percentage damage caused to the plant, five-point scale, SETFA [12]
C=C(Cl)COC(=O)c1nn(-c2ccc(OC(F)(F)F)cc2)c2cccc(S(C)(=O)=O)c2c1=O [Compound P66, 2-chloroallyl 5-methylsulfonyl-4-oxo-1-[4-(trifluoromethoxy)phenyl]cinnoline-3-carboxylate] | 1 (1=10-20%) | 1 (1=10-20%) | 0 (0=0%) | 4 (4=61-80%) | 4 (4=61-80%) | 0 (0=0%) | 1 (1=10-20%) | 1 (1=10-20%) | 0 (0=0%) | 4 (4=61-80%) | 0 (0=0%) | 5 (5=81-100%)
CS(=O)(=O)c1cccc2c1c(=O)c(C(=O)OCC(F)F)nn2-c1ccc(OC(F)(F)F)cc1 [Compound P67, 2,2-difluoroethyl 5-methylsulfonyl-4-oxo-1-[4-(trifluoromethoxy)phenyl]cinnoline-3-carboxylate] | 0 (0=0%) | 2 (2=21-40%) | 0 (0=0%) | 4 (4=61-80%) | 4 (4=61-80%) | 1 (1=10-20%) | 1 (1=10-20%) | 1 (1=10-20%) | 1 (1=10-20%) | 3 (3=41-60%) | 0 (0=0%) | 5 (5=81-100%)
CC(C)(C)COC(=O)c1nn(-c2ccc(OC(F)(F)F)cc2)c2cccc(S(C)(=O)=O)c2c1=O [Compound P68, 2,2-dimethylpropyl 5-methylsulfonyl-4-oxo-1-[4-(trifluoromethoxy)phenyl]cinnoline-3-carboxylate] | 0 (0=0%) | 0 (0=0%) | 0 (0=0%) | 4 (4=61-80%) | 3 (3=41-60%) | 0 (0=0%) | 1 (1=10-20%) | 0 (0=0%) | 0 (0=0%) | 3 (3=41-60%) | 0 (0=0%) | 4 (4=61-80%)
COCCCOC(=O)c1nn(-c2ccc(OC(F)(F)F)cc2)c2cccc(S(C)(=O)=O)c2c1=O [Compound P69, 3-methoxypropyl 5-methylsulfonyl-4-oxo-1-[4-(trifluoromethoxy)phenyl]cinnoline-3-carboxylate] | 0 (0=0%) | 0 (0=0%) | 0 (0=0%) | 4 (4=61-80%) | 4 (4=61-80%) | 1 (1=10-20%) | 2 (2=21-40%) | 1 (1=10-20%) | 0 (0=0%) | 3 (3=41-60%) | 0 (0=0%) | 4 (4=61-80%)
CS(=O)(=O)c1cccc2c1c(=O)c(C(=O)OC1CCOC1)nn2-c1ccc(OC(F)(F)F)cc1 (stereo not drawn) [Compound P70, tetrahydrofuran-3-yl 5-methylsulfonyl-4-oxo-1-[4-(trifluoromethoxy)phenyl]cinnoline-3-carboxylate] | 0 (0=0%) | 1 (1=10-20%) | 0 (0=0%) | 3 (3=41-60%) | 4 (4=61-80%) | 0 (0=0%) | 0 (0=0%) | 1 (1=10-20%) | 0 (0=0%) | 3 (3=41-60%) | 0 (0=0%) | 4 (4=61-80%)
C#CCCOC(=O)c1nn(-c2ccc(OC(F)(F)F)cc2)c2cccc(S(C)(=O)=O)c2c1=O [Compound P71, but-3-ynyl 5-methylsulfonyl-4-oxo-1-[4-(trifluoromethoxy)phenyl]cinnoline-3-carboxylate] | 0 (0=0%) | 0 (0=0%) | 0 (0=0%) | 4 (4=61-80%) | 3 (3=41-60%) | 1 (1=10-20%) | 1 (1=10-20%) | 0 (0=0%) | 0 (0=0%) | 3 (3=41-60%) | 0 (0=0%) | 5 (5=81-100%)
CC(C)COC(=O)c1nn(-c2ccc(OC(F)(F)F)cc2)c2cccc(S(C)(=O)=O)c2c1=O [Compound P72, isobutyl 5-methylsulfonyl-4-oxo-1-[4-(trifluoromethoxy)phenyl]cinnoline-3-carboxylate] | 0 (0=0%) | 0 (0=0%) | 0 (0=0%) | 4 (4=61-80%) | 4 (4=61-80%) | 1 (1=10-20%) | 1 (1=10-20%) | 0 (0=0%) | 0 (0=0%) | 3 (3=41-60%) | 0 (0=0%) | 4 (4=61-80%)
CS(=O)(=O)c1cccc2c1c(=O)c(C(=O)OCCC#N)nn2-c1ccc(OC(F)(F)F)cc1 [Compound P73, 2-cyanoethyl 5-methylsulfonyl-4-oxo-1-[4-(trifluoromethoxy)phenyl]cinnoline-3-carboxylate] | 0 (0=0%) | 0 (0=0%) | 0 (0=0%) | 3 (3=41-60%) | 4 (4=61-80%) | 1 (1=10-20%) | 1 (1=10-20%) | 0 (0=0%) | 0 (0=0%) | 3 (3=41-60%) | 0 (0=0%) | 5 (5=81-100%)
